The values that follow come from ChEMBL document CHEMBL1132067, “Cytotoxic effects of NSL-1406, a new thienopyrimidine derivative, on leukocytes and osteoclasts” (Bioorg Med Chem Lett, 1999).

One may read the IC50 as the point on the concentration scale where inhibition reaches its midpoint. A high value points to weaker potency in that assay.

Assay [1] has as its system P388. Briefly: Cytotoxicity against P388 cells is the dose giving 50% decrease in the formation of formazan dye. In kind it is functional, cell-based. As to conditions: Mus musculus.
Assay [2] deals with P388. Briefly: Dose giving a 50% decrease in the living cell number (P388 cells). The assay is classed as functional. As to conditions: Mus musculus, read-out: LD50 (the source's name).
For assay [3], the system named is A-431. In words: Cytotoxicity against […] cells is the dose giving 50% decrease in the formation of formazan dye. The assay is classed as functional, cell-based. As to conditions: Homo sapiens.
The subject of assay [4] is ECV-304. Briefly: Dose giving a 50% decrease in the living cell number (ECV-304 cells). In kind it is functional. As to conditions: Homo sapiens, read-out: LD50 (the source's name).
The test system of assay [5] is ECV-304. Briefly: Cytotoxicity against ECV-304 cells is the dose giving 50% decrease in the formation of formazan dye. The assay is classed as functional, cell-based. As to conditions: Homo sapiens.
Assay [6] deals with HL-60. Briefly: Dose giving a 50% decrease in the living cell number (HL-60 cells). The assay is classed as functional. As to conditions: Homo sapiens, read-out: LD50 (the source's name).
Assay [7] deals with HL-60. Briefly: Cytotoxicity against HL-60 cells is the dose giving 50% decrease in the formation of formazan dye. The assay is classed as functional, cell-based. As to conditions: Homo sapiens.
Assay [8] deals with J774. In words: Cytotoxicity against J774 cells is the dose giving 50% decrease in the formation of formazan dye. The assay is classed as functional, cell-based. As to conditions: Mus musculus.
Assay [9] deals with J774. In words: Dose giving a 50% decrease in the living cell number (J774 cells). The assay is classed as functional. As to conditions: Mus musculus, read-out: LD50 (the source's name).
In assay [10] the test system is A-431. In words: Dose giving a 50% decrease in the living cell number ([…] cells). The assay is classed as functional. The note with it: Homo sapiens, read-out: LD50 (the source's name).

`CCCNc1ncnc2scc(C)c12` registered an IC50 in the assay on P388 [1] of 5500 nM. In addition, the CC50 with P388 [2] was determined as 85 µM.
In the case of `Cc1csc2ncnc(NCc3ccc(Cl)cc3)c12`, in the assay with P388 [1], the IC50 was found to be 170 nM. Also, the CC50 in the assay on P388 [2] came out at 74 µM.
In the assay on P388 [1], `Cc1csc2ncnc(NCCc3ccc(N)cc3)c12` yielded an IC50 of 22 nM. The CC50 in the assay with P388 [2] was determined as 39 µM.
The molecule `Cc1csc2ncnc(NCCC(=O)O)c12` gave an IC50 in the assay on P388 [1] of 12000 nM. In addition, the CC50 in the assay on P388 [2] was found to be 250 µM.
Taken in the same sequence, the figures for `Cc1csc2ncnc(Cl)c12` were 33000 nM and 490 µM.
Taken in the same sequence, the figures for `COc1ccc(CCNc2ncnc3scc(C)c23)cc1` were 7.4 nM and 46 µM.
`Cc1csc2ncnc(NCCc3ccccc3)c12` displayed an IC50 in the assay with P388 [1] of 29 nM. Also, the CC50 with P388 [2] came to 43 µM.
In the assay with P388 [1], `Clc1ccc(CCNc2ncnc3sccc23)cc1` registered a half-maximal inhibitory concentration (IC50) of 35 nM. Besides, in the assay with P388 [2], the CC50 came out at 73 µM.
Consider `Cc1csc2ncnc(NCCc3ccc(Br)cc3)c12`, for which, in the assay with P388 [1], the IC50 was 1.1 nM. For the same molecule, in the assay with P388 [2], the CC50 was determined as 58 µM.
Regarding `Cc1csc2ncnc(NCCc3ccc(Cl)cc3)c12`, the IC50 in the assay on A-431 [3] stood at 20 µM; with ECV-304 [5], 34 µM; in the assay with HL-60 [7] it was 8.5 nM; in the assay on J774 [8] it was 5 nM; in the assay on P388 [1], 5.2 nM. For the same molecule, the CC50 was 53 µM in the assay with ECV-304 [4]; 67 µM in the assay with HL-60 [6]; 43 µM in the assay with J774 [9]; 35 µM in the assay with P388 [2]; 51 µM with A-431 [10].
For `Cc1csc2ncnc(NCCc3ccc(F)cc3)c12`, the IC50 in the assay with P388 [1] was determined as 29 nM. The CC50 in the assay on P388 [2] is 68 µM.
The molecule `Cc1csc2ncnc(NCCCc3ccc(Cl)cc3)c12` returned an IC50 in the assay on P388 [1] of 1300 nM. Besides, the CC50 in the assay on P388 [2] came out at 98 µM.
As for `Cc1csc2ncnc(NCCc3ccc(O)cc3)c12`, half-maximal inhibition in the assay with P388 [1] (IC50) required 190 nM. The CC50 in the assay on P388 [2] turned out to be 86 µM.
Take `Clc1ccc(CCNc2ncnc3ccsc23)cc1`: the IC50 in the assay with P388 [1] is 29 nM. The CC50 in the assay on P388 [2] was determined as 41 µM.
Taken in the same sequence, the figures for `Clc1ccc(CCNc2[nH]cnc3ncnc2-3)cc1` were 7300 nM and 96 µM.
